Results as given in patent US10364415B2, “1,4-dioxane-degrading bacteria culture method, medium, and 1,4-dioxane treatment method using 1,4-dioxane-degrading bacteria” (TAISEI CORPORATION, priority 2014, dated 2019).

Legend:
[1] = system: SDIMO-bearing bacteria; test: PCR detection of SDIMO gene in contaminated soil cultured with diethylene glycol (Example 9); assay type: cell-based; settings: seven contaminated soil samples, diethylene glycol 20 g/L, six days
Protocol: The proliferation of SDIMO-bearing bacteria by culturing in a medium supplemented with diethylene glycol was investigated in seven types of soil collected from different places at sites contaminated with 1,4-dioxane. It should be noted that the proliferation of SDIMO-bearing bacteria was evaluated by an increase in PCR amplification products of about 420 bp derived from a SDIMO-encoding gene (a SDIMO gene).
The soil with a wet weight of 10 g was added to an Erlenmeyer flask of 300 ml in which the liquid medium of 90 ml (medium composition: K2HPO4: 1 g/L, (NH4)2SO4: 1 g/L, NaCl: 50 mg/L, MgSO4.7H2O: 200 mg/L, FeCl3: 10 mg/L, CaCl2: 50 mg/L, pH: 7.0) was placed. Then, diethylene glycol was added such that the final concentration became 20 g/L and the rotary shaking culture was carried out at 28° C. and 120 rpm.
The samples were collected immediately after diethylene glycol was added and after six days by 5 ml, respectively, and a supernatant was removed by centrifugation (10,000×g, 4° C., 5 min), and then DNA was recovered from the soil of 0.5 g (of wet weight). For DNA extraction, a soil DNA extraction kit (manufactured by Nippon Gene Co., Ltd., product name: ISOIL for Beads Beating) was used and the extracted DNA was purified using a DNA fragment purification kit (Toyobo Co., Ltd., product name: MagExtractor-PCR & Gel Clean up-). […]

[2] = system: strain CB1190, strain D11, and strain D17; test: Proliferation of 1,4-dioxane-degrading bacteria in the presence of diethylene glycol (Example 1); assay type: cell-based; settings: 28° C., nine days
Protocol: Strain CB1190, strain D11, and strain D17 were used as 1,4-dioxane-degrading bacteria. Each degradation bacterium was cultured for ten days using a CGY medium (casitone: 5 g/L, glycerin: 5 g/L, yeast extract: 1 g/L) containing 1,4-dioxane at a concentration of 500 mg/L. After cultivation, the bacterial cells were harvested and washed with a centrifugal separator, and then mixed with 20 mL of physiological saline, in such a manner that an inoculum suspension was obtained. It should be noted that an inoculum suspension (OD600: approximately 10) which was turbidity-standardized using a spectrophotometer was used as the inoculum suspension. […]
The bacterial cells in the culture solution were collected as […] by suction filtration after the culture was finished. Then, the […] was dried at 105° C. overnight, and the weight of the bacterial cells was measured, in such a manner that the bacterial cell concentration (mg-dry cell/L) was obtained. Proliferation of the bacterial cells was evaluated by Δ bacterial cell concentration obtained by subtracting the initial bacterial cell concentration from the bacterial cell concentration on the ninth day of culture. […]

[3] = system: strain D17; test: Bacterial cell concentration measurement at different diethylene glycol concentrations (Examples 3 to 7); assay type: cell-based, Pseudonocardia sp. D17; settings: diethylene glycol increased from 1 g/L to 10 g/L, seven days
Protocol: 100 mL of a liquid medium (medium composition: K2HPO4: 1 g/L, (NH4)2SO4: 1 g/L, NaCl: 50 mg/L, MgSO4.7H2O: 200 mg/L, FeCl3: 10 mg/L, CaCl2: 50 mg/L, pH: 7.3) containing diethylene glycol of 1 g/L was added to an Erlenmeyer flask equipped with baffles with a volume of 300 mL. Next, strain D17 which was inoculated in the MGY medium in advance was cultured (initial bacterial cell concentration: 111 mg-dry cell/L) and was subjected to the rotary shaking culture at 28° C. and 120 rpm for seven days.
Degradation bacteria were cultured in the same manner as in Example 3 except that the concentration of diethylene glycol in the liquid medium was set to be 5 g/L. […]
The bacterial cells in the culture solution were collected as a filter residue through suction filtration after the cultivation was finished and the bacterial cells were dried at 105° C. overnight, and then the weight of the collected bacterial cells was measured. The bacterial cell concentration (mg-dry cell/L) was obtained from the value of the measured bacterial cell weight. […] The proliferation property of the bacterial cells was evaluated by Δ bacterial cell concentration which was obtained by subtracting the initial bacterial cell concentration from the bacterial cell concentration on the seventh day of culturing.

**Q.** OCCOCCO [diethylene glycol] was tested. Which “PCR amplification product of about 420 bp (SDIMO gene) before and after culturing” value [1] did it give?
**A.** preferentially proliferated SDIMO-bearing bacteria

**Q.** What about the “proliferation properties (Δ bacterial cell concentration)” value ([2]; diethylene glycol 1 g/L as carbon source, all three degradation bacteria) of the same compound?
**A.** could grow using diethylene glycol as a carbon source

**Q.** And the “proliferation properties (Δ bacterial cell concentration)” value ([2]; diethylene glycol 1 g/L, strain D17)?
**A.** extremely high proliferation properties

**Q.** What about the bacterial cell concentration [3] of the same compound?
**A.** increased
